Measured values published in patent US7163946B2 (Ligand Pharmaceuticals Incorporated, priority 2002, dated 2007).
Read-outs that look alike come from different tables or passages of the source.

Columns and labels:
Type in all cases: cell-based
hPR [1] = target: T1, hPR (Homo sapiens, UniProt P06401); assay: hPR cotransfection assay in CV-1 cells, agonist mode; conditions: for Emax: CV-1, CV-1 cells, read-out: hPR Agonist CV-1 Cells Eff. (%); for EC50: Tables 3 and 4, values without footnote
T1 sequence (P06401 1-933): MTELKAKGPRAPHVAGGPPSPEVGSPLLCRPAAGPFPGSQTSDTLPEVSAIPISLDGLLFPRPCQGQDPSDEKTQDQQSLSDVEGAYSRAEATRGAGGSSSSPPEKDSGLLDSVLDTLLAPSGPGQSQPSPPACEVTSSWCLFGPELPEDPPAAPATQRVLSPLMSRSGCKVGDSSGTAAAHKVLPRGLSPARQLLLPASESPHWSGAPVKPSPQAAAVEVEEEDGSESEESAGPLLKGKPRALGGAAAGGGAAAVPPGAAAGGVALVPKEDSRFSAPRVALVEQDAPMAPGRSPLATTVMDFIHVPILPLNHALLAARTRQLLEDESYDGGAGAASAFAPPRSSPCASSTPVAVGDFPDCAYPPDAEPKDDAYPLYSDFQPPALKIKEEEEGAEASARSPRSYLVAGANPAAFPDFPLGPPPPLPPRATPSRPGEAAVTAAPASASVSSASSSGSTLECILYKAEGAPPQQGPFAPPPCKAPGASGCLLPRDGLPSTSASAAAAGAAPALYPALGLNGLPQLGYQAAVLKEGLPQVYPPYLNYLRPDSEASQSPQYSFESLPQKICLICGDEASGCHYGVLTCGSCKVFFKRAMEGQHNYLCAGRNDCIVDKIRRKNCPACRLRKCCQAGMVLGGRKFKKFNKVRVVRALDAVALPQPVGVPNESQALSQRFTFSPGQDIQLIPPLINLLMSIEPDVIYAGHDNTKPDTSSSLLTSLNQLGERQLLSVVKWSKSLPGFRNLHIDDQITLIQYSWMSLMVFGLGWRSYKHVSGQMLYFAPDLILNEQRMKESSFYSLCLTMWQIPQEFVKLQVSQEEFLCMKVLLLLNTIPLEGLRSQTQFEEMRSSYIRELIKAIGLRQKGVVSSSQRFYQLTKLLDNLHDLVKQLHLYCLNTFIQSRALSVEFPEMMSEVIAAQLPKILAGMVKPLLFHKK
Protocol: (§1) Antagonist efficacy was determined as a function (%) of maximal inhibition of a reference agonist at EC50 concentration. All the cotransfection experiments were carried out in 96-well plates by automation (Beckman Biomomek automated workstation).

hPR [2] = target: T1, hPR; assay: hPR cotransfection assay in CV-1 cells, antagonist mode; conditions: maximal inhibition of reference agonist at EC50 concentration; for Emax: CV-1, CV-1 cells, read-out: hPR Antagonist CV-1 Cells Eff. (%)
Protocol: as §1

hPR [3] = target: T2, hPR (Homo sapiens, UniProt P06401); assay: T47D alkaline phosphatase assay, agonist mode; conditions: T47D human breast cancer cells; for Emax: T47D, read-out: hPR Agonist T47D cells Eff. (%)
T2 sequence (P06401 679-933 limits assumed): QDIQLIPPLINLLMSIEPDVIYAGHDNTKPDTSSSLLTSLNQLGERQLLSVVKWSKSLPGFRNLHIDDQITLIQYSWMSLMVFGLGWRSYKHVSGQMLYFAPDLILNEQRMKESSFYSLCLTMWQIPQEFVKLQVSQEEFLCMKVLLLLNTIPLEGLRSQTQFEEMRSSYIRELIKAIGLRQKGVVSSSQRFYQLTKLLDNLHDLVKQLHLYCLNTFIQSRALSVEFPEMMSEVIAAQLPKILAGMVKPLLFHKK
Description: (§2) The potential tissue-selectivities of the selected analogues were examined by using the T47D alkaline phosphatase assay that was developed from human breast cancer cells with endogenous PRs.

hPR [4] = target: T2, hPR; assay: T47D alkaline phosphatase assay, antagonist mode; conditions: T47D human breast cancer cells; for Emax: read-out: hPR Antagonists T47D Cells Eff. (%)
Description: as §2

[5] = relative to maximal response of progesterone as 100%
[6] = read-out: hPR agonist potencies (EC50 in nM) in the cotransfection assay

| SMILES | EC50 (hPR [1]; [6]) [nM] | further results |
| --- | --- | --- |
| CN(C)c1ccc([C@H]2C[C@]3(C)[C@@H](CC[C@]3(O)CCCO)[C@@H]3CCC4=CC(=O)CCC4=C32)cc1 [ZK299, reference compound] |  | Emax (hPR [1]; [5]): < 20%; Emax (hPR [2]): 99%; Emax (hPR [3]): < 20%; Emax (hPR [4]): 86% |
| CC#C[C@]1(O)CC[C@H]2[C@@H]3CCC4=CC(=O)CCC4=C3[C@@H](c3ccc(N(C)C)cc3)C[C@@]21C [RU486, mifepristone, reference compound] |  | hPR Agonist CV-1 Cells Eff. (%) (hPR [1]; CV-1 cells, relative to maximal response of progesterone as 100%): na (na = not active (i.e. efficacy of <20 and potency of >10,000)); hPR Antagonist CV-1 Cells Eff. (%) (hPR [2]; CV-1 cells): 94%; hPR Agonist T47D cells Eff. (%) (hPR [3]): na (na = not active (i.e. efficacy of <20 and potency of >10,000)); hPR Antagonists T47D Cells Eff. (%) (hPR [4]): 94% |
| C#C[C@]1(O)CC[C@H]2[C@@H]3CCC4=CC(=O)CC[C@@H]4[C@H]3CC[C@@]21CC [Levonorgestrel, reference compound] |  | Emax (hPR [1]; [5]): 216%; Emax (hPR [2]): < 20%; Emax (hPR [3]): 96%; Emax (hPR [4]): < 20% |
| CC(=O)[C@H]1CC[C@H]2[C@@H]3CCC4=CC(=O)CC[C@]4(C)[C@H]3CC[C@]12C [Prog., progesterone, reference compound] |  | Emax (hPR [1]; [5]): 100%; Emax (hPR [2]): < 20%; Emax (hPR [3]): 100%; Emax (hPR [4]): < 20% |
| CC1=CC(C)(C)Nc2ccc3c(c21)/C(=C/c1ccccc1Cl)Oc1c(F)cc(F)cc1-3 [Compound 13, 7,9-difluoro-5(Z)-(2-chlorobenzylidene)-1,2-dihydro-2,2,4-trimethyl-5H-chromeno[3,4-f]quinoline] | 1.92 |  |
| CC1=CC(C)(C)Nc2ccc3c(c21)C(c1cccc(Br)c1)Oc1c(F)cc(F)cc1-3 (racemic) [Compound 42, (±)-7,9-difluoro-5-(3-bromophenyl)-1,2-dihydro-2,2,4-trimethyl-5H-chromeno[3,4-f]quinoline] | 3.65 |  |
| CC1=CC(C)(C)Nc2ccc3c(c21)/C(=C/c1cc(F)ccc1C)Oc1ccc(Cl)cc1-3 [Formula II X=9-Cl 2-Me-5-F-Ph, reference compound] | 2.1 |  |
| CCC1Oc2c(F)cc(F)cc2-c2ccc3c(c21)C(C)=CC(C)(C)N3 (racemic) [Compound 46, (±)-7,9-difluoro-5-ethyl-1,2-dihydro-2,2,4-trimethyl-5H-chromeno[3,4-f]quinoline] | 6.93 |  |
| CC1=CC(C)(C)Nc2ccc3c(c21)/C(=C/c1cc(F)ccc1F)Oc1ccc(O)cc1-3 [Formula II X=9-OH 2,5-diF-Ph, reference compound] | 10 |  |
| CC1=CC(C)(C)Nc2ccc3c(c21)C(c1ccc(Cl)cc1)Oc1c(F)cc(F)cc1-3 (racemic) [Compound 43, (±)-7,9-difluoro-5-(4-chlorophenyl)-1,2-dihydro-2,2,4-trimethyl-5H-chromeno[3,4-f]quinoline] | 5.1 |  |
| C=CCC1Oc2c(F)cc(F)cc2-c2ccc3c(c21)C(C)=CC(C)(C)N3 (racemic) [Compound 55, (±)-7,9-difluoro-5-allyl-1,2-dihydro-2,2,4-trimethyl-5H-chromeno[3,4-f]quinoline] | 3.6 |  |
| CCCCC1Oc2c(F)cc(F)cc2-c2ccc3c(c21)C(C)=CC(C)(C)N3 (racemic) [Compound 52, (±)-7,9-difluoro-5-butyl-1,2-dihydro-2,2,4-trimethyl-5H-chromeno[3,4-f]quinoline] | 15 |  |
| CC1=CC(C)(C)Nc2ccc3c(c21)C(c1cccc(F)c1)Oc1c(F)cc(F)cc1-3 (racemic) [Compound 40, (±)-7,9-difluoro-5-(3-fluorophenyl)-1,2-dihydro-2,2,4-trimethyl-5H-chromeno[3,4-f]quinoline] | 6.66 |  |
| CC1=CC(C)(C)Nc2ccc3c(c21)/C(=C/c1cccc(F)c1)Oc1ccc(C)cc1-3 [Formula II X=9-Me 3-F-Ph, reference compound] | 7.95 |  |
| CC1=CC(C)(C)Nc2ccc3c(c21)/C(=C/c1cccc(F)c1C)Oc1ccc(F)cc1-3 [Formula II X=9-F 2-Me-3-F-Ph, reference compound] | 8.4 |  |
| C[C@]12CCC(=O)C=C1[C@@H]1C[C@@H]1[C@H]1[C@@H]3[C@@H]4C[C@@H]4[C@@]4(CCC(=O)O4)[C@@]3(C)CC[C@@H]12 [Drospirenone, reference compound] |  | Emax (hPR [1]; [5]): 87%; Emax (hPR [2]): < 20%; Emax (hPR [3]): 117%; Emax (hPR [4]): < 20% |

| SMILES | EC50 (hPR [1]; [6]) [nM] | further results |
| --- | --- | --- |
| COc1ccc2c(c1)-c1ccc3c(c1/C(=C/c1ccccc1C)O2)C(C)=CC(C)(C)N3 [Formula II X=9-OMe 2-Me-Ph, reference compound] | 67.5 |  |
| CC1=CC(C)(C)Nc2ccc3c(c21)/C(=C/c1ccccc1C)Oc1ccc(O)cc1-3 [Formula II X=9-OH 2-Me-Ph, reference compound] | 9.3 |  |
| CC1=CC(C)(C)Nc2ccc3c(c21)C(c1ccc2c(c1)OCO2)Oc1ccccc1-3 (centres unmarked) [Formula I X=H Benzodioxol-5-yl, reference compound] | 48 |  |
| COc1ccc2c(c1)O/C(=C\c1ccncc1C)c1c-2ccc2c1C(C)=CC(C)(C)N2 [Formula II X=8-OMe 3-Me-4-pyridinyl, reference compound] | 24 |  |
| CC1=CC(C)(C)Nc2ccc3c(c21)/C(=C/c1ccccc1)Oc1ccc(Cl)cc1-3 [Formula II X=9-Cl Phenyl, reference compound] | 6.24 |  |
| COc1ccc2c(c1)O/C(=C\c1ccncc1)c1c-2ccc2c1C(C)=CC(C)(C)N2 [Formula II X=8-OMe 4-pyridinyl, reference compound] | 36 |  |
| CC1=CC(C)(C)Nc2ccc3c(c21)C(c1ccc2c(c1)OCO2)Oc1c(F)cc(F)cc1-3 (racemic) [Compound 35, (±)-7,9-difluoro-5-(1,3-benzodioxol-5-yl)-1,2-dihydro-2,2,4-trimethyl-5H-chromeno[3,4-f]quinoline] | 3.85 |  |
| COc1ccc2c(c1)O/C(=C\c1ccccc1)c1c-2ccc2c1C(C)=CC(C)(C)N2 [Formula II X=8-OMe Phenyl, reference compound] | 5.5 |  |
| CC1=CC(C)(C)Nc2ccc3c(c21)/C(=C/c1cc(F)ccc1C)Oc1ccccc1-3 [Formula II X=H 2-Me-5-F-Ph, reference compound] | 2.6 |  |
| CC1=CC(C)(C)Nc2ccc3c(c21)/C(=C/c1ccccc1)Oc1ccc(F)cc1-3 [Formula II X=9-F Phenyl, reference compound] | 5.25 |  |
| CC1=CC(C)(C)Nc2ccc3c(c21)C(c1ccc(Br)cc1)Oc1c(F)cc(F)cc1-3 (racemic) [Compound 36, (±)-7,9-difluoro-5-(4-bromophenyl)-1,2-dihydro-2,2,4-trimethyl-5H-chromeno[3,4-f]quinoline] | 4.96 |  |
| CC1=CC(C)(C)Nc2ccc3c(c21)/C(=C/c1cc(F)ccc1C)Oc1ccc(F)cc1-3 [Formula II X=9-F 2-Me-5-F-Ph, reference compound] | 2.1 |  |
| CC1=CC(C)(C)Nc2ccc3c(c21)C(c1ccc(Cl)c(C)c1)Oc1ccc(C)cc1-3 (centres unmarked) [Formula I X=9-Me 4-Cl-3-Me-Ph, reference compound] |  | EC50 (hPR [1]; hPR agonist potencies (EC50 in nM) in the cotransfection assay): 7.45 nM |
| CC1=CC(C)(C)Nc2ccc3c(c21)/C(=C/c1ccccc1C)Oc1cc(F)c(F)cc1-3 [Formula II X=8,9-diF 2-Me-Ph, reference compound] | 13 |  |
| CC1=CC(C)(C)Nc2ccc3c(c21)/C(=C/c1cccc(F)c1)Oc1ccc(Cl)cc1-3 [Formula II X=9-Cl 3-F-Ph, reference compound] | 11.6 |  |
| CC1=CC(C)(C)Nc2ccc3c(c21)/C(=C/c1cc(F)ccc1F)Oc1ccc(Cl)cc1-3 [Formula II X=9-Cl 2,5-diF-Ph, reference compound] | 25 |  |
